Key:
ILK = target: T1, ILK (Homo sapiens, UniProt Q13418); assay: Co-immunoprecipitation of thymosin β4 with ILK; format: binding
T1 construct: expressed in transfected cells; host or cells: Cos and 10T1/2 cells
T1 sequence (Q13418 1-452): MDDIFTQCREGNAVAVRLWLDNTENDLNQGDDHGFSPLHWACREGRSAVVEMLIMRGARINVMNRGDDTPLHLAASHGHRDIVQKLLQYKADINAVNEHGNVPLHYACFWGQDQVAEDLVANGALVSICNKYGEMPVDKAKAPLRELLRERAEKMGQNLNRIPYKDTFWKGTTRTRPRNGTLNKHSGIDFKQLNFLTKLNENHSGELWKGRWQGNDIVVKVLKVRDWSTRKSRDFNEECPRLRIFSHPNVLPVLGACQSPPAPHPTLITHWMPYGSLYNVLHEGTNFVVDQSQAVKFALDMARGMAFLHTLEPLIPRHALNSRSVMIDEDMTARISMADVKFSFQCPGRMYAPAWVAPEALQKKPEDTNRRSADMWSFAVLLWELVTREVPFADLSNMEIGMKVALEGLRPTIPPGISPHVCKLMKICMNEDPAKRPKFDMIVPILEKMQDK
Experimental: Co-immunoprecipitation. Cos and 10T1/2 cells were transfected with thymosin β4, PINCH and/or ILK and lysates precipitated with antibodies to each as previously described (Garg et al., 2003). Western blots were performed using anti-ILK polyclonal antibody (Santa Cruz), anti-thymosin β4 polyclonal antibody (Yu et al., 1993) (gift of H. Yin) and anti-Myc or anti-Flag antibody against tagged versions of PINCH.
Thymosin β4 activates ILK and Akt. To investigate the potential mechanisms through which thymosin β4 might be influencing cell migration and survival events, the inventors searched for thymosin β4 interacting proteins. The amino terminus of thymosin β4 was fused with affi-gel beads resulting in exposure of the C-terminus, which allowed identification of previously unknown interacting proteins but prohibited association with actin. The inventors synthesized and screened an E9.5-E12.5 mouse heart T7 phage complementary DNA library by phage display, and thymosin-β4-interacting clones were enriched and confirmed by enzyme-linked immunosorbent assay (ELISA, FIG. 3A). […] PINCH and ILK interact directly with one another and indirectly with the actin cytoskeleton as part of a larger complex involved in cell-extracellular matrix interactions known as the focal adhesion complex. […]

[1] = tested on: C57BL/6J mice after ligation of the left anterior descending coronary artery; assay: Myocardial infarction by coronary artery ligation: echocardiography, scar, TUNEL; format: in vivo, mouse
Description: Immunohistochemistry. Embryonic or adult cardiac tissue was embedded in paraffin and sections used for immunohistochemistry. […] Adult hearts were sectioned at ten equivalent levels from the base of the heart to the apex. Serial sections were used for trichrome sections and reaction with muscle actin, c-kit, Sca-1, Abcg2 and BrdU antibodies and for TUNEL assay (Intergen Company S7111).
Animals and surgical procedures. Myocardial infarction was produced in 58 male C57BL/6J mice at 16 weeks of age (25-30 g) by ligation of the left anterior descending coronary artery as previously described (Garner et al., 2003). All animal protocols were reviewed and approved by the University of Texas Southwestern Medical Center Institutional Animal Care Advisory Committee and were in compliance with the rules governing animal use as published by the NIH. Twenty-nine of the ligated mice received thymosin β4 treatment immediately after ligation and the remaining 29 received PBS injections. Treatment was given intracardiac with thymosin β4 (200 ng in 10 μl collagen) or with 10 μl of collagen; intraperitoneally with thymosin β4 (150 μg in 300 μl PBS) or with 300 μl of PBS; or by both intracardiac and intraperitoneal injections. Intraperitoneal injections were given every 3 days until mice were killed. Doses were based on previous studies of thymosin β4 biodistribution (Mora et al., 1997). Hearts were removed, weighed and fixed for histological sectioning. Additional mice were operated on in a similar fashion for studies 0.5, 1, 3, 6 and 11 days after ligation.
Analysis of cardiac function by echocardiography. Echocardiograms to assess systolic function were performed using M-mode and two-dimensional measurements as described previously (Garner et al., 2003). The measurements represented the average of six selected cardiac cycles from at least two separate scans performed in random-blind fashion with papillary muscles used as a point of reference for consistency in level of scan. End diastole was defined as the maximal left ventricle diastolic dimension and end systole was defined as the peak of posterior wall motion. Single outliers in each group were omitted for statistical analysis. Fractional shortening (FS), a surrogate of systolic function, was calculated from left ventricle dimensions as follows: FS=((EDD−ESD)/EDD)×100%. Ejection fraction (EF) was calculated from two-dimensional images.
Calculation of scar volume. Scar volume was calculated using six sections through the heart of each mouse using Openlab 3.03 software (Improvision) similar to that previously described (Balsam et al., 2004). Percent area of collagen deposition was measured on each section in a blinded fashion and averaged for each mouse.
Statistical analyses. Statistical calculations were performed using a standard t-test of variables with 95% confidence intervals.
Thymosin β4 promotes cell survival after myocardial infarction and improves cardiac function. Because of the effects of thymosin β4 on cardiac cells in vitro, the inventors tested whether thymosin β4 might aid in cardiac repair in vivo after myocardial damage. The inventors created myocardial infarctions in 58 adult mice by coronary artery ligation and treated half with systemic, intracardiac, or systemic plus intracardiac thymosin β4 immediately after ligation and the other half with PBS (FIGS. 4A-E). All 45 mice that survived 2 weeks later were interrogated for cardiac function by random-blind ultrasonography at 2 and 4 weeks after infarction by multiple measurements of cardiac contraction (FIGS. 4A-D).
TUNEL-positive cells that were also myocytes were rare in the thymosin β4 group but abundant in the control hearts. […] Thus, the decreased scar volume and preserved function of thymosin-β4-treated mice were probably due to early preservation of myocardium after infarction through the effects of thymosin β4 on survival of cardiomyocytes.

In the case of thymosin β4, the “strength of interaction of ILK with thymosin β4 in the common complex” value (ILK; immunoprecipitation of PINCH, ILK and thymosin β4) is reported as “weaker than with PINCH”, the “co-precipitation with ILK” value (ILK; transfected cultured cells) is reported as “co-precipitated” and the “cardiomyocyte proliferation or death” value ([1]; 3, 6, 11 or 14 days after coronary ligation, data not shown) is reported as “did not detect significant”. The “cell death by TUNEL assay in cardiomyocytes” value ([1]; 24 h after ligation) was “marked decrease”, the “TUNEL-positive cells that were also myocytes” value ([1]; 24 h after ligation, abundant in control hearts) was “rare” and the ejection fraction ([1]; 3 days after infarction, intracardiac treatment, control 44.7±8.4%, P<0.02) was 64.2±6.69%. For the same substance, the “left ventricle fractional shortening” value ([1]; 3 days after infarction, intracardiac treatment, n=4, 95% confidence interval, control 28.8±2.26%, P<0.02) was 39.2±2.34%, the “cardiac dilation (end diastolic and end systolic dimensions)” value ([1]; after infarction, EDD and ESD significantly higher in control group) was “decreased cardiac dilation” and the mean ejection fraction ([1]; four weeks after coronary ligation, n=23, 95% confidence interval, control 28.2±2.5%, P<0.0001) was 57.7±3.2%. For the same substance, the “mean left ventricular fractional shortening” value ([1]; four weeks after infarction, n=23, 95% confidence intervals, control 23.2±1.2%, P<0.0001) was 37.2±1.8%, the scar volume ([1]; six levels of sections through left ventricle, subset of mice, P<0.05) was “significant reduction” and the “degree of functional improvement, intraperitoneal versus intracardiac administration” value ([1]; systemic i.p. 150 μg vs local 200 ng within the infarct) was “not statistically different”. For the same substance, the “size of scar (trichrome stain)” value ([1]; three levels of section, all treated mice) was “reduced”, the “number of c-kit, Sca-1 or Abcg2 positive cardiomyocytes” value ([1]; treated vs untreated hearts, data not shown) was “failed to detect any differences” and the “size of scar, systemic versus local delivery” value ([1]; trichrome stain) was “not different”. The “improvement in cardiac fractional shortening” value ([1]; versus control, four weeks) was “greater than 60%” and the “improvement in ejection fraction” value ([1]; versus control, four weeks) was > 100%.
